Data: the supplement of paper PMC10307832

How the values were obtained:
Experiment in all cases: relative viability (nuclei count vs DMSO), 5 days (fraction); higher = more cells survive
201T = system: 201T
Summary of the method: (§1)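 Lung cancer cell lines were pin-tool dosed in 1536-well plates on the day after seeding, with either a lone drug or a fixed anchor-drug dose plus five library-drug doses (not always all listed) in √10 steps. Nuclei were counted on 4× images after 5 days. Relative viability is the ratio of treated-well to vehicle-well nuclei counts, with each value a median of duplicate plates.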

A-427 = system: A-427
Summary of the method: as §1

COR-L 105 = system: COR-L 105
Summary of the method: as §1

COR-L23 = system: COR-L23
Summary of the method: as §1

EKVX = system: EKVX
Summary of the method: as §1

HARA = system: HARA
Summary of the method: as §1

HCC-15 = system: HCC-15
Summary of the method: as §1

HCC-44 = system: HCC-44
Summary of the method: as §1

HCC-827 = system: HCC-827
Summary of the method: as §1

LCLC-103H = system: LCLC-103H
Summary of the method: as §1

LK-2 = system: LK-2
Summary of the method: as §1

NCI-H1437 = system: NCI-H1437
Summary of the method: as §1

NCI-H1666 = system: NCI-H1666
Summary of the method: as §1

NCI-H1792 = system: NCI-H1792
Summary of the method: as §1

NCI-H1975 = system: NCI-H1975
Summary of the method: as §1

NCI-H23 = system: NCI-H23
Summary of the method: as §1

NCI-H441 = system: NCI-H441
Summary of the method: as §1

NCI-H520 = system: NCI-H520
Summary of the method: as §1

NCI-H596 = system: NCI-H596
Summary of the method: as §1

NCI-H650 = system: NCI-H650
Summary of the method: as §1

NCI-H838 = system: NCI-H838
Summary of the method: as §1

SK-MES-1 = system: SK-MES-1
Summary of the method: as §1

Q: With `C[C@@H]1CN(CC(=O)Nc2ccc3c(c2)Cc2cccc(-c4cc(=O)cc(N5CCOCC5)o4)c2S3)C[C@H](C)O1` + Cc1nc(NC(=O)N2CCC[C@H]2C(N)=O)sc1-c1ccnc(C(C)(C)C(F)(F)F)c1 [Alpelisib] (partner 2 µM) as the compound, how does the relative viability (201T; first compound 0.04 µM) read?
A: 1.04

Q: What about the relative viability (201T; first compound 0.1265 µM) of the same compound?
A: 1.02

Q: What about the relative viability (201T; first compound 0.4 µM) of the same compound?
A: 0.943

Q: And the relative viability (201T; first compound 4 µM)?
A: 0.95

Q: And the relative viability (A-427; first compound 0.04 µM)?
A: 1.12

Q: What about the relative viability (A-427; first compound 0.1265 µM) of the same compound?
A: 1.08

Q: What about the relative viability (A-427; first compound 0.4 µM) of the same compound?
A: 1.07

Q: And the relative viability (A-427; first compound 4 µM)?
A: 1.07

Q: And the relative viability (COR-L 105; first compound 0.04 µM)?
A: 1.09

Q: And the relative viability (COR-L 105; first compound 0.1265 µM)?
A: 0.998

Q: And the relative viability (COR-L 105; first compound 0.4 µM)?
A: 1.04

Q: And the relative viability (COR-L 105; first compound 4 µM)?
A: 0.896

Q: And the relative viability (COR-L23; first compound 0.04 µM)?
A: 1.02

Q: And the relative viability (COR-L23; first compound 0.1265 µM)?
A: 0.802

Q: And the relative viability (COR-L23; first compound 0.4 µM)?
A: 0.798

Q: And the relative viability (COR-L23; first compound 4 µM)?
A: 0.727

Q: What about the relative viability (EKVX; first compound 0.04 µM) of the same compound?
A: 0.737

Q: What about the relative viability (EKVX; first compound 0.1265 µM) of the same compound?
A: 0.818

Q: And the relative viability (EKVX; first compound 0.4 µM)?
A: 0.818

Q: And the relative viability (EKVX; first compound 4 µM)?
A: 0.732

Q: What about the relative viability (HARA; first compound 0.04 µM) of the same compound?
A: 0.81

Q: What about the relative viability (HARA; first compound 0.1265 µM) of the same compound?
A: 0.637

Q: What about the relative viability (HARA; first compound 0.4 µM) of the same compound?
A: 0.711

Q: And the relative viability (HARA; first compound 4 µM)?
A: 0.78

Q: And the relative viability (HCC-15; first compound 0.04 µM)?
A: 0.976

Q: And the relative viability (HCC-15; first compound 0.1265 µM)?
A: 0.881

Q: And the relative viability (HCC-15; first compound 0.4 µM)?
A: 0.826

Q: What about the relative viability (HCC-15; first compound 4 µM) of the same compound?
A: 0.71

Q: And the relative viability (HCC-44; first compound 0.04 µM)?
A: 0.774

Q: What about the relative viability (HCC-44; first compound 0.1265 µM) of the same compound?
A: 0.744

Q: What about the relative viability (HCC-44; first compound 0.4 µM) of the same compound?
A: 0.615

Q: What about the relative viability (HCC-44; first compound 4 µM) of the same compound?
A: 0.582

Q: What about the relative viability (HCC-827; first compound 0.04 µM) of the same compound?
A: 1.02

Q: And the relative viability (HCC-827; first compound 0.1265 µM)?
A: 0.988

Q: And the relative viability (HCC-827; first compound 0.4 µM)?
A: 0.938

Q: What about the relative viability (HCC-827; first compound 4 µM) of the same compound?
A: 0.978

Q: What about the relative viability (LCLC-103H; first compound 0.04 µM) of the same compound?
A: 1.02

Q: What about the relative viability (LCLC-103H; first compound 0.1265 µM) of the same compound?
A: 0.892

Q: And the relative viability (LCLC-103H; first compound 0.4 µM)?
A: 0.845

Q: And the relative viability (LCLC-103H; first compound 4 µM)?
A: 1.02

Q: What about the relative viability (LK-2; first compound 0.1265 µM) of the same compound?
A: 1.11

Q: What about the relative viability (LK-2; first compound 0.4 µM) of the same compound?
A: 1.18

Q: And the relative viability (LK-2; first compound 4 µM)?
A: 1.28

Q: And the relative viability (NCI-H1437; first compound 0.04 µM)?
A: 1.04

Q: And the relative viability (NCI-H1437; first compound 0.1265 µM)?
A: 1.01

Q: What about the relative viability (NCI-H1437; first compound 0.4 µM) of the same compound?
A: 0.813

Q: What about the relative viability (NCI-H1437; first compound 4 µM) of the same compound?
A: 0.797

Q: And the relative viability (NCI-H1666; first compound 0.04 µM)?
A: 1.17

Q: And the relative viability (NCI-H1666; first compound 0.1265 µM)?
A: 1.12

Q: And the relative viability (NCI-H1666; first compound 0.4 µM)?
A: 0.964

Q: And the relative viability (NCI-H1666; first compound 4 µM)?
A: 0.654

Q: What about the relative viability (NCI-H1792; first compound 0.04 µM) of the same compound?
A: 0.685

Q: And the relative viability (NCI-H1792; first compound 0.1265 µM)?
A: 0.677

Q: What about the relative viability (NCI-H1792; first compound 0.4 µM) of the same compound?
A: 0.707

Q: What about the relative viability (NCI-H1792; first compound 4 µM) of the same compound?
A: 0.665

Q: What about the relative viability (NCI-H1975; first compound 0.04 µM) of the same compound?
A: 0.666

Q: And the relative viability (NCI-H1975; first compound 0.1265 µM)?
A: 0.587

Q: And the relative viability (NCI-H1975; first compound 0.4 µM)?
A: 0.551

Q: And the relative viability (NCI-H1975; first compound 4 µM)?
A: 0.438

Q: And the relative viability (NCI-H23; first compound 0.04 µM)?
A: 0.715

Q: And the relative viability (NCI-H23; first compound 0.1265 µM)?
A: 0.639

Q: And the relative viability (NCI-H23; first compound 0.4 µM)?
A: 0.624

Q: What about the relative viability (NCI-H23; first compound 4 µM) of the same compound?
A: 0.727

Q: What about the relative viability (NCI-H441; first compound 0.04 µM) of the same compound?
A: 0.942

Q: What about the relative viability (NCI-H441; first compound 0.4 µM) of the same compound?
A: 0.675

Q: And the relative viability (NCI-H441; first compound 4 µM)?
A: 0.584

Q: And the relative viability (NCI-H520; first compound 0.04 µM)?
A: 0.974

Q: What about the relative viability (NCI-H520; first compound 0.1265 µM) of the same compound?
A: 0.917

Q: What about the relative viability (NCI-H520; first compound 0.4 µM) of the same compound?
A: 0.535

Q: What about the relative viability (NCI-H520; first compound 4 µM) of the same compound?
A: 0.854

Q: And the relative viability (NCI-H596; first compound 0.04 µM)?
A: 0.513

Q: And the relative viability (NCI-H596; first compound 0.1265 µM)?
A: 0.451

Q: And the relative viability (NCI-H596; first compound 0.4 µM)?
A: 0.384

Q: And the relative viability (NCI-H596; first compound 4 µM)?
A: 0.428

Q: What about the relative viability (NCI-H650; first compound 0.04 µM) of the same compound?
A: 0.949

Q: What about the relative viability (NCI-H650; first compound 0.1265 µM) of the same compound?
A: 1.06

Q: And the relative viability (NCI-H650; first compound 0.4 µM)?
A: 1.15

Q: What about the relative viability (NCI-H650; first compound 4 µM) of the same compound?
A: 0.895

Q: What about the relative viability (NCI-H838; first compound 0.04 µM) of the same compound?
A: 0.971

Q: What about the relative viability (NCI-H838; first compound 0.1265 µM) of the same compound?
A: 0.913

Q: And the relative viability (NCI-H838; first compound 0.4 µM)?
A: 0.906

Q: What about the relative viability (NCI-H838; first compound 4 µM) of the same compound?
A: 0.784

Q: What about the relative viability (SK-MES-1; first compound 0.04 µM) of the same compound?
A: 0.927

Q: What about the relative viability (SK-MES-1; first compound 0.1265 µM) of the same compound?
A: 0.826

Q: What about the relative viability (SK-MES-1; first compound 0.4 µM) of the same compound?
A: 1.02

Q: And the relative viability (SK-MES-1; first compound 4 µM)?
A: 0.813
